In patent publication US20230151065A1, “MULTI-DISULFIDE-BOND LONG-CHAIN PEPTIDE WITH NEURO[…], PHARMACEUTICAL COMPOSITION AND APPLICATION” (priority 2018, published 2023):

What was measured:
[1] = system: primary cultured hippocampal neurons damaged by NMDA; test: NMDA damage of primary cultured hippocampal neurons, MTT viability; type: cell-based, SD (Sprague-Dawley) rat; details: for hippocampal neuron activity after NMDA damage (MTT): MK801 10 μM
Source text: (1) Establishment of NMDA damage model. Primary culture of hippocampal neurons: SD (Sprague-Dawley) female rats pregnant for 18-19 days were anesthetized with a compound anaesthetic agent; fetal rat brains were taken under aseptic conditions and placed in HBSS solution (8.4 g/L of NaCl, 0.224 g/L of KCl, 2.38 g/L of HEPES, 500,000 units of penicillin sodium and 500,000 units of kanamycin sulfate; the pH was adjusted to 7.1-7.2 with 1M NaOH; then the osmotic pressure was adjusted to about 290±10 m Osm with ultrapure water; and after filtration, the solution was stored at 4° C.); the meninges were removed under a stereoscopic dissecting microscope; the bilateral hippocampus was removed and digested in 0.125% pancreatic protease at 37° C. for 10 min; and complete media (90% DMEM medium+10% FBS) (FBS: fetal bovine serum) was used to terminate the digestion; the bilateral hippocampus was washed for 3 times with the complete media to make a single cell suspension; the cell density was adjusted to about 7-8×10^5/ml; and the bilateral hippocampus was inoculated to a 6-well/96-well cell culture plate/60 mm culture dish/slide coated with L-polylysine. After 24 hours, the media were changed to serum-free neurobasal media (GIBCO) which were then placed in a 5% CO2, 37° C. incubator for culture; and half of the solution was changed every three days.
(2) NMDA damage treatment of hippocampal neurons: (1) The original media were sucked out and the cells were washed with magnesium-free extracellular fluid for three times, each for 5 minutes. (2) 10 mM NMDA (N-methyl-D-aspartic acid) and 10 mM Gly (glycine) were prepared with magnesium-free extracellular fluid, and NMDA was prepared to different concentrations with the magnesium-free extracellular fluid, wherein the final concentration of Gly was 10 μM. […] After damage, the cells were washed for three times with DMEM medium, each for 5 minutes. (3) The original culture media were re-added to continue for culturing for 24 hours.
(3) Detection of viability of hippocampal neurons after NMDA damage: (1) The hippocampal neurons were inoculated into a 96-well culture plate at 8×10^5 cells/ml, 0.1 ml per well, and cultured in a 5% CO2 incubator for 7-8 days. (2) After NMDA damage treatment and continuous culture for 24 hours, the culture solution was sucked off. (3) 100 μl of DMEM culture medium containing MTT (3-(4,5-dimethylthiazole-2)-2,5-diphenyltetrazolium bromide, 0.5 mg/ml) was added to each well, and the culture plate was put into 37° C., 5% CO2 incubator for culturing for 4 h. (4) 100 μl of 20% SDS was added to each well (20 g of sodium lauryl sulfate was dissolved in 50 ml of ddH2O+50 ml of N,N dimethylformamide) at 37° C. for 20 h. (5) The solution was shaken on a horizontal shaker for 5 min. (6) The optical density (OD) was measured at 570 nm (reference wavelength of 490 nm) on a microplate reader.
(6) Effect of ABPPk2 on decrease of hippocampal neuron activity caused by NMDA. Effect of different concentrations of ABPPk2 on hippocampal neuron damage caused by NMDA (100 μM, 30 min). The experiment was divided into 9 experimental groups: a normal group, NMDA (100 μM, 30 min) group (as a control group), ABPPk2 (0.01 μg/ml) group, ABPPk2 (0.1 μg/ml) group, ABPPk2 (0.3 μg/ml) group, ABPPk2 (1 μg/ml) group, ABPPk2 (3 μg/ml) group, ABPPk2 (10 μg/ml) group and MK801 (dizocilpine, 10 μM) group (as a positive control group). Three administration ways were adopted for ABPPk2: (1) ABPPk2 was administered 12 hours before and during the NMDA damage. (2) ABPPk2 was administered during NMDA damage. (3) ABPPk2 was administered during 24 hours of culture after NMDA damage.

[2] = system: primary cultured SD fetal rat cortical neurons after OGD damage; test: OGD damage of cortical neurons, Hoechst 33258 staining of apoptotic bodies; type: cell-based; details: OGD 2 h, 24 h reoxygenation; ABPPk2 8, 40, 200 ng/ml, dose-dependent; BDNF 10 ng/ml
Experimental: The suspension was filtered with a 400-mesh screen, centrifuged at 1000 rpm for 5 min, and blown to form the single cell suspension. DMEM high glucose complete medium (containing 10% fetal bovine serum) was inoculated in a culture dish or culture plate pre-coated with polylysine (PLL) to culture in 5% CO2 incubator with saturated humidity at 37° C. After the cells were cultured for 4 h to adhere to the wall, the cells were cultured with neuron culture medium (neurobasal+2% B27) for 3 d to observe the growth of neurons. The culture medium containing cytarabine (the final concentration of cytarabine was 2.5 μg/ml) was substituted with half quantity to culture for 3d to inhibit the growth of glial cells and miscellaneous cells to obtain purely cultured primary cortical nerve cells. The purity of the cortical neurons was identified by immunocytochemical staining as more than 90%.
After the cortical neurons were cultured to the 7th day, the original culture medium was sucked out, and the cells were rinsed twice with sugar-free DMEM basal medium, for 5 min each time. Each OGD damage group was added with DMEM sugar-free culture medium, placed in a Billups-Rothenberg anaerobic culture chamber, filled with 95% N2/5% CO2 to balance for 15 min, and sealed for 2 h to build an OGD model. […]

Molecule: C[C@]12N[C@H](Cc3ccccc31)c1ccccc12 [MK801, dizocilpine, reference compound]
- hippocampal neuron activity after NMDA damage (MTT) ([1]; given 12 h before and during NMDA (100 μM, 0.5 h), ABPPk2 0.1, 0.3 and 1 μg/ml groups): can effectively reduce the decrease of hippocampal neuron activity caused by NMDA damage
- hippocampal neuron activity after NMDA damage (MTT) ([1]; given during 24 h culture after NMDA damage (100 μM, 0.5 h), ABPPk2 0.1-10 μg/ml): can effectively reduce the decrease of hippocampal neuron activity caused by NMDA damage
- hippocampal neuron activity after NMDA damage (MTT) ([1]; given during NMDA damage (100 μM, 0.5 h), ABPPk2 1 and 10 μg/ml groups): can effectively reduce the decrease of hippocampal neuron activity caused by NMDA damage

Molecule: CLETSGSCIPGAQHNCCSGVCVPLVTLFYGVCY (Achyranthes bidentata Blume) [SEQ ID No: 3]
- protective effect on NMDA damage of primary hippocampal neurons ([1]; overall statement, experimental solution of embodiment 6, concentration and administration way not stated): can effectively reduce the decrease of hippocampal neuron activity caused by NMDA damage

B1: BDNF: positive control group, final concentration of 10 ng/ml (protein, UniProt P23560 19-247, looked up)
Neurotrophic factor BDNF …: APMKEANIRGQGGLAYPGVRTHGTLESVNGPKAGSRGLTSLADTFEHVIEELLDEDQKVRPNEENNKDADLYTSRVMLSSQVPLEPPLLFLLEEYKNYLDAANMSMRVRRHSDPARRGELSVCDSISEWVTAADKKTAVDMSGGTVTVLEKVPVSKGQLKQYFYETKCNPMGYTKEGCRGIDKRHWNSQCRTTQSYVRALTMDSKKRIGWRFIRIDTSCVCTLTIKRGR
- apoptotic bodies of cortical neuron nuclei [2]: the apoptotic bodies are reduced
